Values quoted from earlier work in patent publication US20110269740A1, “JAK KINASE MODULATING COMPOUNDS AND METHODS OF USE THEREOF” (Ambit Biosciences Corporation, priority 2008, published 2011).
Read-outs that look alike come from different tables or passages of the source.

Legend:
[1] = tested on: CML cell lines such as 32Dp210 and K562, as well as mouse Bcr-Abl+32D cells; details: CML cell lines 32Dp210, K562, mouse Bcr-Abl+32D
[2] = tested on: BCR-Abl+BaF3 cells which carried the Abl T315I mutation; details: imatinib-resistant
[3] = tested on: prostate cancer cell DU145
transplant rejection [4] = details: non-human primate renal transplant model, orally available
transplant rejection [5] = details: murine heterotopic heart transplant model, orally available

For `N#C/C(=C/c1ccc(O)c(O)c1)C(=O)NCc1ccccc1` [AG490], the “downstream effect on c-Myc” value [1] is given as “reduction of c-Myc”, the apoptosis [2] is given as “induce apoptosis” and the apoptosis [3] is given as “induced apoptosis”.
In the case of `C[C@@H]1CCN(C(=O)CC#N)C[C@@H]1N(C)c1ncnc2[nH]ccc12` [CP-690550], the “prevention of transplant rejection” value (transplant rejection [4]) is listed as “efficacy in preventing transplant rejection” and the “prevention of transplant rejection” value (transplant rejection [5]) is listed as “efficacy in preventing transplant rejection”.
